Measured values taken from ChEMBL document CHEMBL3832042, “DailyMed|setid=5d4f90d4-e535-4681-a863-3d774a2064e6 | ANASTROZOLE - anastrozole tablet|PD-Rx Pharmaceuticals, Inc”.
Values joined by “and” are separate entries in the source; they are usually repeats but may differ in a detail not shown here. Equal values may be shown once.

Columns and labels:
[1] = Evaluation of pharmacokinetic parameters for Anastrazole following single oral administration of Anastrazole to subjects under fatsed and fed conditions.; details: human, in vivo
Homo sapiens = experiment: Evaluation of pharmacokinetic parameters for Anastrazole following multiple oral administration of Anastrazole to Caucasian and to Japanese female subjects.; assay type: ADME, organism-based; details: in vivo, dose 1 mg, dosed compound id 24, dosed compound name ANASTROZOLE, gender female, regimen every 24h, study dosing duration 16 days, tissue Plasma

half-life [1]: 50 h
Cmin ss (Homo sapiens): 30.4 ng/mL and 25.7 ng/mL
SMILES: CC(C)(C#N)c1cc(Cn2cncn2)cc(C(C)(C)C#N)c1 [ANASTROZOLE]
